This note sets out measurements from patent publication US11980609B2, “LPA receptor antagonists and uses thereof” (Gilead Sciences, Inc., priority 2021, dated 2024).

In general, EC50 refers to the midpoint of the concentration-response curve.

Structures are written as SMILES.

In this assay the target is T1, human LPAR1 (Homo sapiens, UniProt Q92633).
T1 construct: host or cells: CHO-K1
T1 sequence (Q92633 whole entry): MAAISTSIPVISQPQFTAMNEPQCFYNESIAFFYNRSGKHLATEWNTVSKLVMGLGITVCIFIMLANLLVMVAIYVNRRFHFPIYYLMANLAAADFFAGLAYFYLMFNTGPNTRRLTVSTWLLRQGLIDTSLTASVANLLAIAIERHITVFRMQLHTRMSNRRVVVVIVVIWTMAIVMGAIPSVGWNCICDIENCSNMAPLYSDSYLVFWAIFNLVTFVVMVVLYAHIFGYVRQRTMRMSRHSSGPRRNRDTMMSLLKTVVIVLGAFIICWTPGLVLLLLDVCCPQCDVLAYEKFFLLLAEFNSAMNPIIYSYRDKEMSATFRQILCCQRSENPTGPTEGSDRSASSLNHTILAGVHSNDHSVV
Briefly: LPAR1 intracellular calcium mobilization assay (antagonist mode). It counts as cell-based. The settings on record: CHO-K1 EDG2 cells expressing human LPAR1; 60 min pre-incubation with compound (0.5 nM to 10 μM), then LPA 18:2 challenge; FLIPR Tetra calcium signal. The procedure:
In vitro LPAR1 activity was measured in an intracellular calcium mobilization assay.
CHO-K1 EDG2 cells (DiscoverX cat #93-0644C2) expressing human LPAR1 (NM_001401.3) were seeded in a total volume of 25 μL of Dulbecco's Modification of Eagle's Medium (DMEM) with 10% Fetal Bovine Serum, 1× PenStrepGlutamine, 300 μg/ml Hygromycin, and 800 μg/ml G418 into 384-well tissue culture plate (Grenier #781091) at 15,000 cells/well and incubated at 37° C. overnight. Prior to testing, 25 μL Calcium Loading Dye Component A (FLIPR Calcium 6 Assay Kit Molecular Device #R8190) and 2.5 mM Probenecid (Invitrogen #P36400, prepared fresh) in Hank's Balanced Salt Solution (Corning #21-023-CV), 20 mM HEPES (Corning #25-060-CI), 0.1% Bovine Serum Albumin (Sigma-Aldrich #A7906-500G) was add to the cells for 60 minutes at 37° C.
Agonist dose curves of LPA 18:2 (Avanti Polar Lipids cat #857138, 0.5 nM to 10 μM) were recorded to determine the LPA 18:2 EC80 for subsequent antagonist assays. For agonist dose curves, cells were removed from the incubator 2 hours after dye loading and transferred to the FLIPR Tetra instrument (Molecular Devices, San Jose, CA). Calcium mobilization was monitored for 5 min and 10 μL 6×LPA in HBSS/20 mM Hepes/0.1% bovine serum albumin (BSA) was added to the cells 5 seconds into the assay.
To determine the LPAR1 antagonist activity of test compounds, cells were pre-incubated with test compound at a dose range of 0.5 nM to 10 μM, followed by LPA at […] concentration (100 nM). After dye loading, cells were removed from the incubator and 0.3 μL of 200× antagonist was added. Cells were incubated for 60 minutes at 37° C. Antagonist activity was measured on a FLIPR Tetra. Calcium mobilization was monitored for 3.5 minutes and 10 μL 6×EC80 LPA in HBSS, 20 mM HEPES, and 0.1% BSA was added to the cells 5 seconds into the assay. Signal amplitude (Maximum minus minimum) values were plotted against log10 of antagonist concentration using Dose Response Tool (Gilead Sciences Inc.) to determine EC50.
To assess the antagonistic potential of exemplified compounds EC50 values were determined for Compounds 1 to 55 in the LPAR1 calcium mobilization assay. The compound numbers correspond to the compound numbers in Examples 1 to 35. N/A=not available.
On the technique in general: A change in cytosolic calcium serves as a functional read-out for many receptors and channels.
In the case of `C[C@@H](OC(=O)Nc1c(-c2ncc(NS(C)(=O)=O)cn2)cnn1C)c1ccccc1F` [Compound 51, (R)-1-(2-fluorophenyl)ethyl (1-methyl-4-(5-(methylsulfonamido)pyrimidin-2-yl)-1H-pyrazol-5-yl)carbamate], the EC50 was 36.4 nM.

Turning to `C[C@@H](OC(=O)Nc1c(-c2ncc(C(O)C(F)(F)F)cn2)cnn1C)c1cc(F)cnc1F` (stereo partly drawn) [Compound 53, (R)-1-(2,5-difluoropyridin-3-yl)ethyl (1-methyl-4-(5-(2,2,2-trifluoro-1-hydroxyethyl)pyrimidin-2-yl)-1H-pyrazol-5-yl)carbamate], the EC50 came out at 745 nM.

With `C[C@@H](OC(=O)Nc1c(-c2ncc(C(F)F)cn2)cnn1C)c1cc(F)cnc1F` [Compound 54, (R)-1-(2,5-difluoropyridin-3-yl)ethyl (4-(5-(difluoromethyl)pyrimidin-2-yl)-1-methyl-1H-pyrazol-5-yl)carbamate], the EC50 came to 2880 nM.

Consider `C[C@@H](OC(=O)Nc1c(-c2ncc(OC(F)F)cn2)cnn1C)c1cc(F)cnc1F` [Compound 55, (R)-1-(2,5-difluoropyridin-3-yl)ethyl (4-(5-(difluoromethoxy)pyrimidin-2-yl)-1-methyl-1H-pyrazol-5-yl)carbamate], for which the EC50 was 1780 nM.
